Data published in US8318725B2, “Aryl indolyl sulfonamide compounds and their use as 5-HT6 ligands” (Suven Life Sciences Limited, priority 2008, dated 2012).
Read-outs that look alike come from different tables or passages of the source.

Columns and labels:
5-HT6 receptor = conditions: literature statement; cited from earlier work
Male Wister rats = assay: Object recognition task model (NORT); assay type: in vivo; conditions: for NORT Discriminative Index (DI), treatment: p.o., vehicle value in brackets; for NORT Inference: at the dose tested (10 or 30 mg/kg, p.o.)
Procedure: Object Recognition Task Model
The cognition-enhancing properties of compounds of this invention were estimated using a model of animal cognition: the object recognition task model.
Male Wister rats (230-280 grams) obtained from N. I. N. (National Institute of Nutrition, Hyderabad, India) were used as experimental animals. Four animals were housed in each cage. Animals were kept on 20% food deprivation before one day and given water ad libitum throughout the experiment and-maintained on a 12 hours light/dark cycle. Also the rats were habituated to individual arenas for 1 hour in the absence of any objects.
One group of 12 rats received vehicle (1 mL/Kg) orally and another set of animals received compound of the formula (I) either orally or i.p., before one hour of the familiar (T1) and choice trial (T2).
The experiment was carried out in a 50×50×50 cm open field made up of acrylic. In the familiarilation phase, (T1), the rats were placed individually in the open field for 3 minutes, in which two identical objects (plastic bottles, 12.5 cm height×5.5 cm diameter) covered in yellow masking tape alone (a1 and a2) were positioned in two adjacent corners, 10 cm. from the walls. After 24 hours of the (T1) trial for long-term memory test, the same rats were placed in the same arena as they were, placed in T1 trial. Choice phase (T2) rats were allowed to explore the open field for 3 minutes in presence of one familiar object (a3) and one novel object (b) (Amber color glass'bottle, 12 cm high and 5 cm in diameter). Familiar objects presented similar textures, colors and sizes. During the T1 and T2 trial, explorations of each object (defined as sniffing, licking, chewing or having moving vibrissae whilst directing the nose towards the object at a distance of less than 1 cm) were recorded separately by stopwatch. Sitting on an object was not regarded as exploratory activity, however, it was rarely observed. T1 is the total time spent exploring the familiar objects (a1+a2). T2 is the total time spent exploring the familiar object and novel object (a3+b).
The object recognition test was performed as described by Ennaceur, A., Delacour, J., 1988, A new one-trial test for neurobiological studies of memory in rats—Behavioral data, Behay. Brain Res., 31, 47-59.
Some representative compounds have shown positive effects indicating the increased novel object recognition viz; increased exploration time with novel object and higher discrimination index.

Human 5-HT6 receptor = molecular target: T1, Human 5-HT6 receptor (Homo sapiens, UniProt P50406); assay: Binding assay for human 5-HT6 receptor ([3H] LSD radioligand); conditions: [3H] LSD 1.5 nM, human recombinant receptor in HEK293 cells
T1 construct: expressed in transfected cells; host or cells: HEK293
Procedure: Binding Assay for Human 5-HT6 Receptor
Compounds can be tested according to the following the procedures. Materials and Methods:
Receptor source: Human recombinant expressed in HEK293 cells
Radioligand: [^3H] LSD (60-80 Ci/mmol)
Final ligand concentration—[1.5 nM]
Non-specific determinant: Methiothepin mesylate—[0.1 μM]
Reference compound: Methiothepin mesylate
Positive control: Methiothepin mesylate
Reactions were carried out in […] TRIS-HCl (pH 7.4) containing 10 μM MgCl2, 0.5 mM EDTA for 60 minutes at 37° C. The reaction was terminated by rapid vacuum filtration onto glass fiber filters. Radioactivity trapped onto the filters was determined and compared to control values in order to ascertain any interactions of test compound(s) with the cloned serotonin 5-HT6binding site.
Literature Reference: Monsma F. J. Jr., et al., Molecular Cloning and Expression of Novel Serotonin Receptor with High Affinity for Tricyclic Psychotropic Drugs. Mol. Pharmacol. (43): 320-327 (1993).

[1] = Rodent pharmacokinetic study; assay type: in vivo, Male wistar rats; conditions: plasma, Wistar/Male rat, 10 mg/kg; for bioavailability: oral vs intravenous, read-out: Bioavailab; for Cmax / Tmax / half-life / AUC: water; for AUC: read-out: AUC1
Procedure: Rodent Pharmacokinetic Study Male wistar rats (230-280 grams) obtained from NIN (National Institute of Nutrition, Hyderabad, India) were used as an experimental animal. Three to five animals were housed in each cage. Animals were kept fasted over night and maintained on a 12 hours light/dark cycle. Three rats were dosed NCE (10 mg/Kg) orally and intravenously on day 0 and day 2. At each time point blood was collected by jugular vein. Plasma was stored frozen at −20° C. until analysis. The concentrations of the NCE compound in plasma were determined using LC-MS/MS method. Schedule time points: Pre dose 0.25, 0.5, 1, 1.5, 2, 3, 4, 6, 8, 10, 12 and 24 hours after dosing (n=3). The NCE compounds were quantified in plasma by validated LC-MS/MS method using solid phase extraction technique. NCE compounds were quantified in the calibration range of 2-2000 ng/mL in plasma. Study samples were analyzed using calibration samples in the batch and quality control samples spread across the batch. Pharmacokinetic parameters Cmax, Tmax, AUCt, AUCinf, half life, volume of distribution, clearance, mean residence time and thereby oral bioavailability were calculated by non-compartmental model using software WinNonlin version 5.1.

rats = assay: Water maze, scopolamine induced reversal; assay type: in vivo
Procedure: The water maze apparatus consisted of a circular pool (1.8 m diameter, 0.6 m high) constructed in black Perspex (TSE systems, Germany) filled with water (24±2° C.) and positioned underneath a wide-angled video camera to track animal. The 10 cm^2 perspex platform, lying 1 cm below the water surface, was placed in the centre of one of the four imaginary quadrants, which remained constant for all rats. The black Perspex used in the construction of the maze and platform offered no intramaze cues to guide escape behavior. By contrast, the training room offered several strong extramaze visual cues to aid the formation of the spatial map necessary for escape, learning. An automated tracking system, [Videomot 2 (5.51), TSE systems, Germany] was employed. This program analyzes video images acquired via a digital camera and an image acquisition board that determined path length, swim speed and the number of dutation of swim time spent in each quadrant of the water maze.

[2] = Rodent brain penetration study; assay type: in vivo, Male Wister rats; conditions: brain homogenate and plasma; Wistar/Male rat, 10 mg/kg, water, Oral (as in table); read-out: Steady State Brain Penetration (Cb/Cp)
[3] = system: animal models for schizophrenia; conditions: literature statement; cited from earlier work

T1 sequence (P50406 whole entry): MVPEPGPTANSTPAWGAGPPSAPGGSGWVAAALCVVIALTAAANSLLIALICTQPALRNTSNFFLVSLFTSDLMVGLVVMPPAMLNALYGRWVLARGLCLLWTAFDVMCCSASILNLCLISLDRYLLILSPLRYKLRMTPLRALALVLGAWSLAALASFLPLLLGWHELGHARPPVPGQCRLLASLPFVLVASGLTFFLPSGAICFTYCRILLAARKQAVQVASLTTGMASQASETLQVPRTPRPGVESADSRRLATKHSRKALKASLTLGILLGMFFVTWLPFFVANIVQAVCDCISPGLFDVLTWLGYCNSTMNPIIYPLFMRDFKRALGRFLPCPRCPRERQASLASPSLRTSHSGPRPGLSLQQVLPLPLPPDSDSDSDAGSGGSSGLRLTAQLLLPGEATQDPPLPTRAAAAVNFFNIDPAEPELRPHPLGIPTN

In the case of `CN1CCN2c3ccccc3Cc3ccccc3C2C1` (centres unmarked) [mianserin], the “Affinity for the 5-HT6 receptor” value (5-HT6 receptor) is given as “high affinity”.

For `CN(C)CCC=C1c2ccccc2CCc2ccccc21` [amitriptyline], the “Affinity for the 5-HT6 receptor” value (5-HT6 receptor) is listed as “high affinity”.

In the case of `CCN1CCN(Cc2cc(S(=O)(=O)n3ccc4ccccc43)ccc2C)CC1.Cl.Cl` [Example 23, 1-[4-methyl-3-(4-ethylpiperazin-1-ylmethyl)benzenesulfonyl]-1H-indole dihydrochloride], the melting point is reported as 250.13 °C, the “NORT Discriminative Index (DI), treatment” value (“NORT Discriminative Index” below) (Male Wister rats; 30 mg/kg) is reported as 0.58 (0.49) and the “NORT Inference” value (Male Wister rats) is reported as “Active”. It also gave a Ki (Human 5-HT6 receptor) of 3.96 nM, a bioavailability [1] of 14 ± 10% and a Cmax ([1]; Intravenous) of 4680 ± 617 ng/mL. It also gave a Tmax ([1]; Intravenous) of 4.8 min, a half-life ([1]; Intravenous) of 375 ± 21 min and an AUC ([1]; Intravenous) of 4070 ± 888 ng·h/mL. It also gave a Cmax ([1]; Oral) of 749 ± 836 ng/mL, a Tmax ([1]; Oral) of 30 ± 25.8 min and a half-life ([1]; Oral) of 191 ± 103 min. The AUC ([1]; Oral) was 1170 ± 1050 ng·h/mL, the “Scopolamine Induced Reversal” value (rats) was “≧30 mg/kg, p.o” and the Kp [2] was 0.53 ± 0.13.

With `Cc1cn(S(=O)(=O)c2ccc(Cl)c(CN3CCN(C)CC3)c2)c2ccccc12.Cl.Cl` [Example 35, 1-[4-Chloro-3-(4-methylpiperazin-1-ylmethyl)benzenesulfonyl]-3-methyl-1H-indole dihydrochloride] the melting point was 216.9 to 218.7 °C, the “NORT Discriminative Index” value (Male Wister rats; 30 mg/kg) was 0.63 (0.49) and the “NORT Inference” value (Male Wister rats) was “Active”. For the same compound, the Ki (Human 5-HT6 receptor) was 5.45 nM, the bioavailability [1] was 10 ± 6% and the Cmax ([1]; Intravenous) was 481 ± 331 ng/mL. The Tmax ([1]; Intravenous) was 4.8 min, the half-life ([1]; Intravenous) was 350 ± 133 min and the AUC ([1]; Intravenous) was 808 ± 156 ng·h/mL. For the same compound, the Cmax ([1]; Oral) was 106 ± 1 ng/mL, the Tmax ([1]; Oral) was 22.8 ± 10.8 min and the half-life ([1]; Oral) was 104 ± 33.6 min. For the same compound, the AUC ([1]; Oral) was 342 ± 152 ng·h/mL, the “Scopolamine Induced Reversal” value (rats) was >30 mg/kg, p.o and the Kp [2] was 1.61 ± 0.39.

In the case of `CN1CCN(Cc2cccc(S(=O)(=O)n3ccc4ccccc43)c2)CC1` [Example 8, 1-[3-(4-Methylpiperazin-1-ylmethyl)benzenesulfonyl]-1H-indole], the “NORT Discriminative Index” value (Male Wister rats; 10 mg/kg) is reported as 0.58 (0.45), the “NORT Inference” value (Male Wister rats) is reported as “Active” and the Ki (Human 5-HT6 receptor) is reported as 1.91 nM. For the same compound, the “Scopolamine Induced Reversal” value (rats) was “≧30 mg/kg, p.o”.

In the case of `Cc1ccc(S(=O)(=O)n2ccc3ccccc32)cc1CN1CCN(C)CC1.Cl.Cl` [Example 22, 1-[4-methyl-3-(4-methylpiperazin-1-ylmethyl)benzenesulfonyl]-1H-indole dihydrochloride], the “NORT Discriminative Index” value (Male Wister rats; 10 mg/kg) is reported as 0.57 (0.54), the “NORT Inference” value (Male Wister rats) is reported as “Active” and the Ki (Human 5-HT6 receptor) is reported as 7.01 nM. It also gave a bioavailability [1] of 30 ± 7%, a Cmax ([1]; Intravenous) of 4320 ± 1680 ng/mL and a Tmax ([1]; Intravenous) of 4.8 min. It also gave a half-life ([1]; Intravenous) of 161 ± 90.6 min, an AUC ([1]; Intravenous) of 5130 ± 1750 ng·h/mL and a Cmax ([1]; Oral) of 1380 ± 427 ng/mL. It also gave a Tmax ([1]; Oral) of 22.8 ± 10.8 min, a half-life ([1]; Oral) of 471 ± 157 min and an AUC ([1]; Oral) of 3190 ± 1750 ng·h/mL. For the same compound, the “Scopolamine Induced Reversal” value (rats) was >30 mg/kg, p.o and the Kp [2] was 2.03 ± 0.42.

For `COc1ccc(NS(=O)(=O)c2sc3ccc(Cl)cc3c2C)cc1N1CCNCC1` [SB-271046, 5-Chloro-N-(4-methoxy-3-piperazin-1-ylphenyl)-3-methyl-2-benzothiophenesulfonamide], the “Activity in animal tests related to positive or negative symptoms of schizophrenia” value [3] is listed as “inactive”.

Compound `Cc1ccc(S(=O)(=O)n2ccc3cc(F)ccc32)cc1CN1CCN(C)CC1.Cl.Cl` [Example 43, 1-[4-Methyl-3-(4-methylpiperazin-1-ylmethyl)benzenesulfonyl]-5-fluoro-1H-indole dihydrochloride] has a melting point of 220.3 to 223.4 °C and an inhibition at 0.1 µM (Human 5-HT6 receptor; 100 nM test compound, read-out: % Inhibition of specific binding at 100 nM) of 86.2%.
